Assay type in all cases: cell-based
Test [1] has as its target T1, EGFR L858R (BaF3-L858R cells) (Homo sapiens, UniProt P00533, L858R).
T1 construct: host or cells: BaF3
Briefly: Cell degradation of EGFR, HTRF assay, BaF3-L858R cells. The following applies: 16 h treatment; for DC50: EGFR degradation; for Dmax: maximum percentage of degradation. Summed up:
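BaF3-L858R cells treated 16 h at 37° C, 5% CO2 with compound (top 10 uM final, 5-fold, 8 doses, 0.1% DMSO). DC50 from four-parameter fit; Dmax is maximum percent degradation.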

Test [2] has as its target p-EGFR Del19/C797S (H1975-clone #23 cells) (Homo sapiens, UniProt P00533). Briefly: Cell p-EGFR inhibition assay, HTRF, H1975-clone#23 (DEL19/C797S) cells. Particulars: 16 h treatment; for Imax (%): maximum percentage of pEGFR inhibition; for IC50: pEGFR inhibition. Summed up: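 Phospho-EGFR read by overnight HTRF on lysates, normalized to DMSO-treated high control; IC50, Hill slope and Imax fitted. Compounds were applied for 16 h (10 uM top, 5-fold steps, 8 doses) to an H1975 single clone carrying only exogenous Del19/C797S EGFR after sgRNA knockout of endogenous copies.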

The target of test [3] is T2, p-EGFR L858R (BaF3-L858R cells) (Homo sapiens, UniProt P00533, L858R).
T2 construct: host or cells: BaF3
As to the kind of experiment: Cell p-EGFR inhibition assay, HTRF, BaF3-L858R cells. Particulars: 16 h treatment; for Imax (%): maximum percentage of pEGFR inhibition; for IC50: pEGFR inhibition. Summed up: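 BaF3-L858R cells treated 16 h at 37 °C, 5% CO2 with compound from 10 uM top, 5-fold dilutions, 8 doses, in 0.1% DMSO medium. Lysates read overnight by HTRF p-EGFR antibodies; IC50 fitted to four-parameter curve against DMSO high control.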

For test [4], the target named is T3, EGFR-L858R/C797S (H1975-clone #8 cells) (Homo sapiens, UniProt P00533, C797S/L858R).
T3 construct: expressed in transfected cells; host or cells: H1975 (endogenous EGFR knocked out, clone #8)
As to the kind of experiment: Cell degradation of EGFR, HTRF assay, H1975-clone#8 (L858R/C797S) cells. The following applies: 16 h treatment; for DC50: EGFR degradation; for Dmax: maximum percentage of degradation.

`Cc1cc2cc(n1)-c1c(C)nn(C)c1OC[C@H]1CC[C@H](C1)CN1/C(=N/C2=O)Nc2ccc(N3CCN(C4CCN(c5cc(F)c([C@H]6CCC(=O)NC6=O)c(F)c5)CC4)C(=O)C3)cc21` [Example 164, (R)-3-(2,6-difluoro-4-(4-(2-oxo-4-((7^1R,7^3S,E)-1^1,1^3,2^6-trimethyl-3-oxo-5^2,5^3-dihydro-1^1H,5^1H-9-oxa-4-aza-5(2,1)-benzo[d]imidazola-2(2,4)-pyridina-1(4,5)-pyrazola-7(1,3)-cyclopentanacyclononaphane-5^6-yl)piperazin-1-yl)piperidin-1-yl)phenyl)piperidine-2,6-dione]: in test [1], half-maximal degradation (DC50) was put at 2.79 nM and the greatest degradation seen (Dmax) was 92.7%. In addition, in test [2], the “Imax (%)” value was 96.95% and half-maximal inhibition (IC50) required 0.254 nM. For the same compound, in test [3], the “Imax (%)” value is 94.91% and the IC50 was 1.85 nM. Besides, in test [4], the DC50 is 1.19 nM and the Dmax is 88.7%.
Take `COCCn1nc(C)c2c1OC[C@H]1CC[C@H](C1)CN1/C(=N/C(=O)c3cc(C)nc-2c3)Nc2ccc(N3CCN(C4CCN(c5cc(F)c([C@H]6CCC(=O)NC6=O)c(F)c5)CC4)CC3)cc21` [Example 161, (R)-3-(2,6-difluoro-4-(4-(4-((7^1R,7^3S,E)-1^1-(2-methoxyethyl)-1^3,2^6-dimethyl-3-oxo-5^2,5^3-dihydro-1^1H,5^1H-9-oxa-4-aza-5(2,1)-benzo[d]imidazola-2(2,4)-pyridina-1(4,5)-pyrazola-7(1,3)-cyclopentanacyclononaphane-5^6-yl)piperazin-1-yl)piperidin-1-yl)phenyl)piperidine-2,6-dione]: in test [1], the DC50 is 7.2 nM and the Dmax is 91.4%. Further, in test [2], the “Imax (%)” value was found to be 95.04% and 0.49 nM corresponded to half-maximal inhibition (IC50). In test [3], the “Imax (%)” value is reported as 93.23% and 4.51 nM corresponded to half-maximal inhibition (IC50). In test [4], this compound came in with a DC50 of 2.96 nM and a Dmax of 89.3%.
`COC[C@H]1CN(c2cc3c(cc2F)N/C2=N\C(=O)c4cc(C)nc(c4)-c4c(C)nn(C)c4OC[C@H]4CC[C@H](C4)CN23)CCN1C1CCN(c2cc(F)c([C@H]3CCC(=O)NC3=O)c(F)c2)CC1` [Example 165, (R)-3-(2,6-difluoro-4-(4-((R)-4-((7^1R,7^3S,E)-5^5-fluoro-1^1,1^3,2^6-trimethyl-3-oxo-5^2,5^3-dihydro-1^1H,5^1H-9-oxa-4-aza-5(2,1)-benzo[d]imidazola-2(2,4)-pyridina-1(4,5)-pyrazola-7(1,3)-cyclopentanacyclononaphane-5^6-yl)-2-(methoxymethyl)piperazin-1-yl)piperidin-1-yl)phenyl)piperidine-2,6-dione]: in test [1], it took 3.32 nM to reach half-maximal degradation (DC50) and the greatest degradation seen (Dmax) was determined as 91.1%. For the same compound, in test [2], the “Imax (%)” value is recorded as 94.62% and the concentration for half-maximal inhibition (IC50) is 1.34 nM. In test [3], the “Imax (%)” value worked out at 93.3% and 4.83 nM corresponded to half-maximal inhibition (IC50). In test [4], this compound displayed a 50% degradation concentration (DC50) of 4.45 nM and a Dmax of 88.7%.
`Cc1cc2cc(n1)-c1cnn(C)c1OC[C@H]1CCC(C1)CN1/C(=N/C2=O)Nc2ccc(N3CC4(C3)CN(C3CCN(c5cc(F)c([C@H]6CCC(=O)NC6=O)c(F)c5)CC3)C4)cc21` [Example 117, (R)-3-(4-(4-(6-((7^1R,7^3S,E)-1^1,2^6-dimethyl-3-oxo-5^2,5^3-dihydro-1^1H,5^1H-9-oxa-4-aza-5(2,1)-benzo[d]imidazola-2(2,4)-pyridina-1(4,5)-pyrazola-7(1,3)-cyclopentanacyclononaphane-5^6-yl)-2,6-diazaspiro[3.3]heptan-2-yl)piperidin-1-yl)-2,6-difluorophenyl)piperidine-2,6-dione]: in test [1], the DC50 amounted to 1.11 nM and the Dmax came out at 78%. In test [2], the “Imax (%)” value was found to be 100% and the IC50 was found to be 0.6 nM. For the same compound, in test [3], the “Imax (%)” value turned out to be 97.1% and half-maximal inhibition (IC50) required 14.9 nM. In test [4], this compound came in with a DC50 of 0.92 nM and a Dmax of 80.6%.

Source of the values: patent publication US20240425523A1, “Compounds for the Degradation of EGFR Kinase” (Beigene Switzerland GMBH, priority 2023, published 2024).
